Experimental data: patent US10300060B2, “Trk-inhibiting compound” (ONO PHARMACEUTICAL CO., LTD., priority 2013, dated 2019)

Key:
b-Raf = b-Raf (Homo sapiens (Human), UniProt P15056); experiment: Enzyme-inhibiting activity test of kinases other than Trk (selectivity experiment): b-Raf; format: biochemical; settings: concentration of 3 μM; read-out: Inhibition rate (%) b-Raf
Method: (§1) A test substance (the present compound) was dissolved in dimethylsulfoxide to prepare a 100-fold concentration of the test concentration, 3 μM. The solution was further diluted to 25-fold with an assay buffer (20 mM HEPES, 0.01% Triton X-100, 2 mM DTT, pH 7.5) to obtain a test substance solution. In a similar manner a positive control substance solution was prepared with a positive control substance.
(§2) A 4-times concentration solution (5 μL) of the test substance prepared with the assay buffer, 5 μL of a 4-times concentration solution of substrate/ATP/metal (Mg) and 10 μL of a 2-times concentration solution of kinase were mixed in a well of a polypropylene 384-well plate and allowed to react at room temperature for 1 hour. The reaction was terminated by adding 60 μL of a Termination Buffer (QuickScout Screening Assist MSA; Carna Biosciences). The substrate peptide and the phosphorylated peptide in the reaction solution were separated and quantified. The kinase reaction was assessed from the product ratio (P/(P+S)) calculated from the height (S) of the peak of the substrate peptide and the height (P) of the peak of the phosphorylated peptide. Other kinases used in the kinase selectivity experiments were, for example, b-Raf and KDR. The following Table 3 indicates substrates, substrate concentrations, ATP concentrations and positive control substances used in respective kinase enzyme inhibition activity tests.

KDR = KDR (Homo sapiens (Human), UniProt P35968); experiment: Enzyme-inhibiting activity test of kinases other than Trk (selectivity experiment): KDR; format: biochemical; settings: concentration of 3 μM; read-out: Inhibition rate (%) KDR
Sequence of KDR (P35968 20-1356, species assumed): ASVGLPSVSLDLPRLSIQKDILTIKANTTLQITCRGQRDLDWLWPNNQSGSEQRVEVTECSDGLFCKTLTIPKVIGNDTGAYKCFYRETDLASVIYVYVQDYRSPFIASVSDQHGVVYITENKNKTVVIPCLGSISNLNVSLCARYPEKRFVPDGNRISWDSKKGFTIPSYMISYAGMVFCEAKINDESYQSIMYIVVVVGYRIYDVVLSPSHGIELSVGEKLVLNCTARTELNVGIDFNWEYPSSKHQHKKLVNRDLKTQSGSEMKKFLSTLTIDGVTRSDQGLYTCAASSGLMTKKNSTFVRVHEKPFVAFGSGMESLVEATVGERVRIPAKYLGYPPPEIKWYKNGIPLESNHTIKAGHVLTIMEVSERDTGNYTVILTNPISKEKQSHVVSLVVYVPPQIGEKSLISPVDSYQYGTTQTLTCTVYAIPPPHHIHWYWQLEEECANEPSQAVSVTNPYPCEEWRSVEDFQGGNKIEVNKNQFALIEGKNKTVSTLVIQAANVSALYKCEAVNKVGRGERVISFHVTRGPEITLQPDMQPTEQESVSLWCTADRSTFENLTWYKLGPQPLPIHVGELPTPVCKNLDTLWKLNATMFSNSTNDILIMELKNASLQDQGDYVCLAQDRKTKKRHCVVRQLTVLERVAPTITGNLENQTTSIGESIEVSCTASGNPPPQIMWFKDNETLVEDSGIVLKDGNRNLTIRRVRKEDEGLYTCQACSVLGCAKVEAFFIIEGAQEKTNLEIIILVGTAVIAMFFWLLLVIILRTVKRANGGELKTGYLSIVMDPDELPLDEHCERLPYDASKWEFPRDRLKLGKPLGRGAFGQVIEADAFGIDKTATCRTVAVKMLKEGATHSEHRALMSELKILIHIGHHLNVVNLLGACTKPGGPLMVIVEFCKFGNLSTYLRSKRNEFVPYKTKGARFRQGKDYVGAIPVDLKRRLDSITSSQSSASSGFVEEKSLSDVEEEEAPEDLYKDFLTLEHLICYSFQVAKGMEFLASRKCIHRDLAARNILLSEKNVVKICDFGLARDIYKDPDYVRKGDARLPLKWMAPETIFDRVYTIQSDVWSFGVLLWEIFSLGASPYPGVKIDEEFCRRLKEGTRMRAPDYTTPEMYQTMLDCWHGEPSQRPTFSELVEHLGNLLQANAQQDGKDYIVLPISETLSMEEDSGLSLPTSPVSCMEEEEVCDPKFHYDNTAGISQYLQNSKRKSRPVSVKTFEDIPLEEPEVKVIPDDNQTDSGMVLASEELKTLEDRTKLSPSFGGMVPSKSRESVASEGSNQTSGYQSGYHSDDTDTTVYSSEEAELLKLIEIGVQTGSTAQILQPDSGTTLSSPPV
Method: as §1, §2

[1] = system: sodium monoiodoacetate-induced model rats; experiment: Analgesic effect on sodium monoiodoacetate-induced model rats; format: in vivo, rat; settings: MIA-induced model rats
[2] = test substance orally twice a day day 14 to 23, day 24 3 hours before measurement, right hind limb weight load ratio, experiment with tramadol as positive control
[3] = test substance orally twice a day day 14 to 23, day 24 3 hours before measurement, right hind limb weight load ratio, experiment with morphine as positive control

Sequence of b-Raf (P15056 whole entry, species assumed): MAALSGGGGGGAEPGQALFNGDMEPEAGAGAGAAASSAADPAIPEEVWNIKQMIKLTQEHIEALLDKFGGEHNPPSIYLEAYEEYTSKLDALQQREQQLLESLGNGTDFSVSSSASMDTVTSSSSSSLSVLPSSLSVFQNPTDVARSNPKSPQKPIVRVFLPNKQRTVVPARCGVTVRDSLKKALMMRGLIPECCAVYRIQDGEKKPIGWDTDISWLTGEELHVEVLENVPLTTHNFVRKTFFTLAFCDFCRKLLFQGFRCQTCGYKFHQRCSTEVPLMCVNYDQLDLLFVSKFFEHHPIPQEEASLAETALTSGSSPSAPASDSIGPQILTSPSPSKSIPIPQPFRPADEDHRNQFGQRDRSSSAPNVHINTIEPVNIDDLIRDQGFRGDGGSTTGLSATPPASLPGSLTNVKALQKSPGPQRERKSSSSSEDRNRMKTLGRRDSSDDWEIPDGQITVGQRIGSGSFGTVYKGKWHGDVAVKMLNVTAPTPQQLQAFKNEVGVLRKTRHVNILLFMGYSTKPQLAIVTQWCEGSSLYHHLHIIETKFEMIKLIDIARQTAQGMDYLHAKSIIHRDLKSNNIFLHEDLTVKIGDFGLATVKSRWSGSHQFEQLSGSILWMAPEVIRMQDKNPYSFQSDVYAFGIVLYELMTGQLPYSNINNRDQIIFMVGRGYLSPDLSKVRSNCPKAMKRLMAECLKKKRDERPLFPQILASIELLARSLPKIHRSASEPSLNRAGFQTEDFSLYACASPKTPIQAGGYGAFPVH

| SMILES | inhibition at 3 µM (b-Raf) | inhibition at 3 µM (KDR) | Percent improvement (%) [1, 2] | Percent improvement (%) [1, 3] | Percent improvement (%) ([1]; 10 mg/kg subcutaneously 1 hour before measurement on day 24) |
| --- | --- | --- | --- | --- | --- |
| Nc1ncc(Cl)cc1-c1ccc(Oc2ncc(NC(=O)Nc3cc(C(F)(F)F)ccc3-n3cccn3)cn2)cc1 [Example 7, 1-(2-(1H-pyrazol-1-yl)-5-(trifluoromethyl)phenyl)-3-(2-(4-(2-amino-5-chloropyridin-3-yl)phenoxy)pyrimidin-5-yl)urea] | 40% | 0% | 61% |  |  |
| Cc1cn(-c2ccc(C(F)(F)F)cc2NC(=O)Nc2cnc(Oc3ccc(-c4cc(Cl)cnc4N)cc3)nc2)nn1 [Example 8-1, 1-(2-(4-(2-amino-5-chloropyridin-3-yl)phenoxy)pyrimidin-5-yl)-3-(2-(4-methyl-1H-1,2,3-triazol-1-yl)-5-(trifluoromethyl)phenyl)urea] | 6.5% | 0% | 60% |  |  |
| Nc1ncc(F)cc1-c1ccc(Oc2ncc(NC(=O)Nc3cc(C(F)(F)F)ccc3-n3ccnn3)cn2)cc1 [Example 14-5, 1-(2-(1H-1,2,3-triazol-1-yl)-5-(trifluoromethyl)phenyl)-3-(2-(4-(2-amino-5-fluoropyridin-3-yl)phenoxy)pyrimidin-5-yl)urea] | 13% | 0% | 47% |  |  |
| Nc1ncc(F)cc1-c1ccc(Oc2ncc(NC(=O)Nc3cc(C(F)(F)F)ccc3-c3cccnc3)cn2)cc1 [Example 14-6, 1-(2-(4-(2-amino-5-fluoropyridin-3-yl)phenoxy)pyrimidin-5-yl)-3-(2-(pyridin-3-yl)-5-(trifluoromethyl)phenyl)urea] | 45% | 1.7% |  | 53% |  |
| Nc1ncc(Cl)cc1-c1ccc(Oc2ncc(NC(=O)Nc3ccc(C(F)(F)F)cc3Cl)cn2)cc1 [Example 15-6, 1-(2-(4-(2-amino-5-chloropyridin-3-yl)phenoxy)pyrimidin-5-yl)-3-(2-chloro-4-(trifluoromethyl)phenyl)urea] | 37% | 0% | 51% |  |  |
| Nc1ncc(C(F)(F)F)cc1-c1ccc(Oc2ncc(NC(=O)Nc3cc(C(F)(F)F)ccc3-n3ccc(C(F)(F)F)n3)cn2)cc1 [Example 15-52, 1-(2-{4-[2-amino-5-(trifluoromethyl)-3-pyridinyl]phenoxyl}-5-pyrimidinyl)-3-{5-(trifluoromethyl)-2-[3-(trifluoromethyl)-1H-pyrazol-1-yl]phenyl}urea] | 20% | 0% |  | 60% |  |
| Nc1ncc(Cl)cc1-c1ccc(Oc2ncc(NC(=O)Nc3cc(C(F)(F)F)ccc3-c3ccccc3)cn2)cc1 [Example 15-55, 1-{2-[4-(2-amino-5-chloro-3-pyridinyl)phenoxy]-5-pyrimidinyl}-3-[4-(trifluoromethyl)-2-biphenylyl]urea] | 30% | 0% |  | 62% |  |
| Nc1ncc(Cl)cc1-c1ccc(Oc2ncc(NC(=O)Nc3cc(C(F)(F)F)ccc3-n3cc(Cl)cn3)cn2)cc1 [Example 15-63, 1-{2-[4-(2-amino-5-chloro-3-pyridinyl)phenoxy]-5-pyrimidinyl}-3-[2-(4-chloro-1H-pyrazol-1-yl)-5-(trifluoromethyl)phenyl]urea] | 43% | 0% |  | 53% |  |
| Nc1ncc(Cl)cc1-c1ccc(Oc2ncc(NC(=O)Nc3ccc(C(F)(F)F)cc3C(F)(F)F)cn2)cc1 [Example 15-77, 1-{2-[4-(2-amino-5-chloro-3-pyridinyl)phenoxy]-5-pyrimidinyl}-3-[2,4-bis(trifluoromethyl)phenyl]urea] | 32% | 0% |  | 55% |  |
| Nc1ncc(C(F)(F)F)cc1-c1ccc(Oc2ncc(NC(=O)Nc3cc(C(F)(F)F)ccc3-n3cc(Cl)cn3)cn2)cc1 [Example 15-87, 1-(2-{4-[2-amino-5-(trifluoromethyl)-3-pyridinyl]phenoxyl}-5-pyrimidinyl)-3-[2-(4-chloro-1H-pyrazol-1-yl)-5-(trifluoromethyl)phenyl]urea] | 34% | 0% |  | 57% |  |
| CS(=O)(=O)c1ccc(C(F)(F)F)cc1NC(=O)Nc1cnc(Oc2ccc(-c3cc(C(F)(F)F)cnc3N)cc2)nc1 [Example 15-98, 1-(2-{4-[2-amino-5-(trifluoromethyl)-3-pyridinyl]phenoxyl}-5-pyrimidinyl)-3-[2-(methylsulfonyl)-5-(trifluoromethyl)phenyl]urea] | 23% | 8% |  | 57% |  |
| CS(=O)(=O)c1ccc(C(F)(F)F)cc1NC(=O)Nc1cnc(Oc2ccc(-c3cc(Cl)cnc3N)cc2)nc1 [Example 15-104, 1-{2-[4-(2-amino-5-chloro-3-pyridinyl)phenoxy]-5-pyrimidinyl}-3-[2-(methylsulfonyl)-5-(trifluoromethyl)phenyl]urea] | 53% | 18% |  | 54% |  |
| COc1ccn2ncc(-c3ccc(Oc4ncc(NC(=O)Nc5cc(C(F)(F)F)ccc5-c5cccnc5)cn4)cc3)c2n1 [Example 21-9, 1-(2-(4-(5-methoxypyrazolo[1,5-a]pyrimidin-3-yl)phenoxy)pyrimidin-5-yl)-3-(2-(pyridin-3-yl)-5-(trifluoromethyl)phenyl)urea] |  |  | 64% |  |  |
| O=C(Nc1cnc(Oc2ccc(-c3cnn4cccnc34)cc2)nc1)Nc1cc(C(F)(F)F)ccc1-c1cccnc1 [Example 21-13, 1-(2-(4-(pyrazolo[1,5-a]pyrimidin-3-yl)phenoxy)pyrimidin-5-yl)-3-(2-(pyridin-3-yl)-5-(trifluoromethyl)phenyl)urea] |  |  | 66% |  |  |
| CN(C)c1ccn2ncc(-c3ccc(Oc4ncc(NC(=O)Nc5cc(C(F)(F)F)ccc5-c5cccnc5)cn4)cc3)c2n1 [Example 21-37] | 50% | 16% |  | 67% |  |
| CN(C)c1ccn2ncc(-c3ccc(Oc4ncc(NC(=O)Nc5cc(C(F)(F)F)ccc5-c5ccnn5C)cn4)cc3)c2n1 [Example 21-51, 1-(2-{4-[5-(dimethylamino)pyrazolo[1,5-a]pyrimidin-3-yl]phenoxyl}-5-pyrimidinyl)-3-[2-(1-methyl-1H-pyrazol-5-yl)-5-(trifluoromethyl)phenyl]urea] | 49% | 9% |  | 68% |  |
| CCNc1ccn2ncc(-c3ccc(Oc4ncc(NC(=O)Nc5cc(C(F)(F)F)ccc5-c5cccc(C)c5)cn4)cc3)c2n1 [Example 21-67, 1-(2-{4-[5-(ethylamino)pyrazolo[1,5-a]pyrimidin-3-yl]phenoxyl}-5-pyrimidinyl)-3-[3′-methyl-4-(trifluoromethyl)-2-biphenylyl]urea] | 19% | 0% |  |  |  |
| CN(C)c1ccn2ncc(-c3ccc(Oc4ncc(NC(=O)Nc5cc(C(F)(F)F)ccc5-c5ccccc5)cn4)cc3)c2n1 [Example 21-70, 1-(2-{4-[5-(dimethylamino)pyrazolo[1,5-a]pyrimidin-3-yl]phenoxyl}-5-pyrimidinyl)-3-[4-(trifluoromethyl)-2-biphenylyl]urea] | 19% | 0% |  | 61% |  |
| Cc1cccc(-c2ccc(C(F)(F)F)cc2NC(=O)Nc2cnc(Oc3ccc(-c4cnn5ccc(N(C)C)nc45)cc3)nc2)c1 [Example 21-73, 1-(2-{4-[5-(dimethylamino)pyrazolo[1,5-a]pyrimidin-3-yl]phenoxyl}-5-pyrimidinyl)-3-[3′-methyl-4-(trifluoromethyl)-2-biphenylyl]urea] | 21% | 0% |  | 62% |  |
| Cc1ccccc1-c1ccc(C(F)(F)F)cc1NC(=O)Nc1cnc(Oc2ccc(-c3cnn4ccc(N(C)C)nc34)cc2)nc1 [Example 21-75, 1-(2-{4-[5-(dimethylamino)pyrazolo[1,5-a]pyrimidin-3-yl]phenoxyl}-5-pyrimidinyl)-3-[2′-methyl-4-(trifluoromethyl)-2-biphenylyl]urea] | 41% | 0% |  |  |  |
| CCOc1ccc2ncc(-c3ccc(Oc4ncc(NC(=O)Nc5cc(C(F)(F)F)ccc5-c5cccnc5)cn4)cc3)n2n1 [Example 22-34, 1-{2-[4-(6-ethoxyimidazo[1,2-b]pyridazin-3-yl)phenoxy]-5-pyrimidinyl}-3-[2-(3-pyridinyl)-5-(trifluoromethyl)phenyl]urea] | 56% | 19% |  |  |  |
| COc1cccc(C2(O)CCCCC2CN(C)C)c1 (stereo not drawn) [Tramadol, tramadol, reference compound] |  |  |  |  | 43% |
